Reference: patent publication US20260256792A1, “TREATMENT OF CHRONIC SPONTANEOUS URTICARIA BY ADMINISTERING (R)-2-[3-[4-AMINO-3-(2-FLUORO-4-PHENOXY-PHENYL)PYRAZOLO[3,4-D]PYRIMIDIN-1-YL]PIPERIDINE-1-CARBONYL]-4-METHYL-4-[4-(OXETAN-3-YL)PIPERAZIN-1-YL]PENT-2-ENENITRILE” (priority 2023, published 2026)

Tested on: angioedema in CSU patients
Test: Phase 2 CSU study: angioedema activity score over 7 days (AAS7)
Format: in vivo, human
Settings: 400 mg BID; for AAS7 = 0, OR (95% CI) for rilzabrutinib vs. placebo / AAS7 = 0, RRD (%) for rilzabrutinib vs. placebo (95% CI) / AAS7 Post-baseline Mean (SD) / Participants with AAS7 = 0, Responder n (%) / AAS7 % Change difference for rilzabrutinib vs. placebo LS Mean (95% CI) / AAS7 % Change from baseline LS Mean (SE) / AAS7 Change difference for rilzabrutinib vs. placebo LS Mean (95% CI) / AAS7 Change from baseline LS Mean (SE) / AAS7 = 0, Non-responder n (%): angioedema at baseline; for Non-responder n (%), AAS7 = 0 / OR (95% CI) for rilzabrutinib vs. placebo, AAS7 = 0 / Responder n (%), AAS7 = 0 / RRD (%) for rilzabrutinib vs. placebo (95% CI), AAS7 = 0: outlier removed
Description: The study comprises a 12 week, randomized, double-blind, placebo-controlled, multi-center, dose-ranging efficacy and safety phase, followed by a 40 week open label extension (OLE) phase (see FIG. 1). The study consists of three phases and an optional OLE phase. […] The weekly angioedema activity score (AAS7) was proposed as a tertiary endpoint. […] Patients were to complete the AAS using the e-diary. The e-diary was to be used once daily on the same time of each day recording of participant's answers to the angioedema activity score over 7 days (AAS7) questionnaire.

CC(C)(C=C(C#N)C(=O)N1CCC[C@@H](n2nc(-c3ccc(Oc4ccccc4)cc3F)c3c(N)ncnc32)C1)N1CCN(C2COC2)CC1 [rilzabrutinib, (R)-2-[3-[4-amino-3-(2-fluoro-4-phenoxy-phenyl)pyrazolo[3,4-d]pyrimidin-1-yl]piperidine-1-carbonyl]-4-methyl-4-[4-(oxetan-3-yl)piperazin-1-yl]pent-2-enenitrile]
AAS7 = 0, OR (95% CI) for rilzabrutinib vs. placebo (Week 4, omalizumab-naïve): 2.118
AAS7 = 0, RRD (%) for rilzabrutinib vs. placebo (95% CI) (Week 4, omalizumab-naïve): 16.8 %
AAS7 Post-baseline Mean (SD) (Week 4, omalizumab-naïve): 14.79 (17.89)
Participants with AAS7 = 0, Responder n (%) (Week 4, omalizumab-naïve): 11 (42.3) n (%)
AAS7 % Change difference for rilzabrutinib vs. placebo LS Mean (95% CI) (Week 5, ITT): −14.36 (−40.13, 11.41) %
AAS7 % Change from baseline LS Mean (SE) (Week 5, ITT): −68.19 (10.08) %
AAS7 Change difference for rilzabrutinib vs. placebo LS Mean (95% CI) (Week 5, ITT): −6.53 (−17.51, 4.44)
AAS7 Change from baseline LS Mean (SE) (Week 5, ITT): −36.13 (4.29)
AAS7 Post-baseline Mean (SD) (Week 5, ITT): 12.95 (20.09)
Non-responder n (%), AAS7 = 0 (Week 5, omalizumab-naïve): 14 (40.0) n (%)
OR (95% CI) for rilzabrutinib vs. placebo, AAS7 = 0 (Week 5, omalizumab-naïve): 1.574
Responder n (%), AAS7 = 0 (Week 5, omalizumab-naïve): 21 (60.0) n (%)
AAS7 % Change difference for rilzabrutinib vs. placebo LS Mean (95% CI) (Week 5, omalizumab-naïve): −10.97 (−38.45, 16.50) %
AAS7 = 0, Non-responder n (%) (Week 5, omalizumab-naïve): 13 (50.0) n (%)
AAS7 = 0, OR (95% CI) for rilzabrutinib vs. placebo (Week 5, omalizumab-naïve): 2.390
AAS7 = 0, RRD (%) for rilzabrutinib vs. placebo (95% CI) (Week 5, omalizumab-naïve): 22.3 %
AAS7 Post-baseline Mean (SD) (Week 5, omalizumab-naïve): 13.98 (20.55)
Participants with AAS7 = 0, Responder n (%) (Week 5, omalizumab-naïve): 13 (50.0) n (%)
AAS7 % Change difference for rilzabrutinib vs. placebo LS Mean (95% CI) (Week 6, ITT): −23.55 (−50.40, 3.31) %
AAS7 Change difference for rilzabrutinib vs. placebo LS Mean (95% CI) (Week 6, ITT): −10.15 (−21.84, 1.54)
AAS7 Change from baseline LS Mean (SE) (Week 6, ITT): −36.76 (4.50)
AAS7 Post-baseline Mean (SD) (Week 6, ITT): 12.28 (18.70)
Non-responder n (%), AAS7 = 0 (Week 6, omalizumab-naïve): 17 (48.6) n (%)
OR (95% CI) for rilzabrutinib vs. placebo, AAS7 = 0 (Week 6, omalizumab-naïve): 1.118
RRD (%) for rilzabrutinib vs. placebo (95% CI), AAS7 = 0 (Week 6, omalizumab-naïve): 2.9 %
Responder n (%), AAS7 = 0 (Week 6, omalizumab-naïve): 18 (51.4) n (%)
AAS7 % Change difference for rilzabrutinib vs. placebo LS Mean (95% CI) (Week 6, omalizumab-naïve): −20.62 (−49.95, 8.72) %
AAS7 = 0, Non-responder n (%) (Week 6, omalizumab-naïve): 15 (57.7) n (%)
AAS7 = 0, OR (95% CI) for rilzabrutinib vs. placebo (Week 6, omalizumab-naïve): 1.828
AAS7 = 0, RRD (%) for rilzabrutinib vs. placebo (95% CI) (Week 6, omalizumab-naïve): 13.6 %
AAS7 Post-baseline Mean (SD) (Week 6, omalizumab-naïve): 13.26 (19.12)
Participants with AAS7 = 0, Responder n (%) (Week 6, omalizumab-naïve): 11 (42.3) n (%)
AAS7 % Change difference for rilzabrutinib vs. placebo LS Mean (95% CI) (Week 7, ITT): −25.42 (−54.97, 4.13) %
AAS7 % Change from baseline LS Mean (SE) (Week 7, ITT): −71.37 (11.45) %
AAS7 Change from baseline LS Mean (SE) (Week 7, ITT): −37.72 (4.37)
AAS7 Post-baseline Mean (SD) (Week 7, ITT): 13.39 (19.19)
Non-responder n (%), AAS7 = 0 (Week 7, omalizumab-naïve): 18 (51.4) n (%)
OR (95% CI) for rilzabrutinib vs. placebo, AAS7 = 0 (Week 7, omalizumab-naïve): 1.022
RRD (%) for rilzabrutinib vs. placebo (95% CI), AAS7 = 0 (Week 7, omalizumab-naïve): 0.6 %
Responder n (%), AAS7 = 0 (Week 7, omalizumab-naïve): 17 (48.6) n (%)
AAS7 % Change difference for rilzabrutinib vs. placebo LS Mean (95% CI) (Week 7, omalizumab-naïve): −23.13 (−55.14, 8.88) %
AAS7 % Change from baseline LS Mean (SE) (Week 7, omalizumab-naïve): −70.13 (12.07) %
AAS7 = 0, Non-responder n (%) (Week 7, omalizumab-naïve): 15 (57.7) n (%)
AAS7 = 0, OR (95% CI) for rilzabrutinib vs. placebo (Week 7, omalizumab-naïve): 1.515
AAS7 Post-baseline Mean (SD) (Week 7, omalizumab-naïve): 14.38 (19.63)
Participants with AAS7 = 0, Responder n (%) (Week 7, omalizumab-naïve): 11 (42.3) n (%)
AAS7 % Change difference for rilzabrutinib vs. placebo LS Mean (95% CI) (Week 8, ITT): −29.34 (−59.45, 0.76) %
AAS7 % Change from baseline LS Mean (SE) (Week 8, ITT): −81.40 (11.62) %
AAS7 Change difference for rilzabrutinib vs. placebo LS Mean (95% CI) (Week 8, ITT): −13.31 (−24.25, −2.37)
AAS7 Change from baseline LS Mean (SE) (Week 8, ITT): −41.63 (4.21)
AAS7 Post-baseline Mean (SD) (Week 8, ITT): 9.20 (16.24)
Non-responder n (%), AAS7 = 0 (Week 8, omalizumab-naïve): 14 (40.0) n (%)
OR (95% CI) for rilzabrutinib vs. placebo, AAS7 = 0 (Week 8, omalizumab-naïve): 1.991
RRD (%) for rilzabrutinib vs. placebo (95% CI), AAS7 = 0 (Week 8, omalizumab-naïve): 17.0 %
Responder n (%), AAS7 = 0 (Week 8, omalizumab-naïve): 21 (60.0) n (%)
AAS7 % Change difference for rilzabrutinib vs. placebo LS Mean (95% CI) (Week 8, omalizumab-naïve): −30.39 (−63.25, 2.47) %
AAS7 % Change from baseline LS Mean (SE) (Week 8, omalizumab-naïve): −80.38 (12.36) %
AAS7 = 0, Non-responder n (%) (Week 8, omalizumab-naïve): 13 (50.0) n (%)
AAS7 = 0, OR (95% CI) for rilzabrutinib vs. placebo (Week 8, omalizumab-naïve): 2.829
